Test results published in US20140323501A1, “AMINO-PROPYLENE-GLYCOL DERIVATIVES, PREPARATION METHOD AND PHARMACEUTICAL COMPOSITION AND USE THEREOF” (INSTITUTE OF MATERIA MEDICA, CHINESE ACADEMY OF MEDICAL …, priority 2011, published 2014).

Tests used:
[1] = system: SD rat peripheral blood lymphocyte counts; assay: Effect of S1P1 receptor agonists on rat vein (peripheral) blood lymphocyte counts; type: in vivo; conditions: for LYM 0 h: before administration; for Δ %: largest decrease of lymphocyte count vs 0 h
Procedure: 10 mg of drugs were measured and placed in a mortar. After 4 mL of 5‰ CMC-Na were added, homogenous suspension was prepared in the mortar (one drop of twain-80 was added to help dissolving). Dosage: 10 mg/Kg, dose volume: 0.4 mL/100 g, intragastric administration.
Every medicated group was assigned three rats.
After the experimental animals stable in the clean environment for 24 h, 10 μL of blood was withdrawn via tail vein and diluted into 2 mL of diluents quickly. […] Then the prepared drugs were administered intragastrically to the animals. […] The animals were killed after 24 h.

[2] = system: SD rat heart rate; assay: Effect of S1P1 receptor agonists on rat heart rate; type: in vivo; conditions: for HR delta %: (lowest heart rate postdose − pre-administration)/pre-administration; for heart rate pre-administration: before administration
Procedure: 2.1 Experimental animals: SD rats, purchased from Weitonglihua. Weight: 200-240 g, male. Every test group was assigned three rats. The normal rats were set as control group and determined as the medicated group parallelly for three times. The positive drug FTY720 was repeated three times.
2.2 Apparatus: Intelligent non-invasive blood pressure measurement meter (Softron, Japan).
(1) Preparation: The drug was dissolved to reach a concentration of 2.5 mg/mL.
(1) Determination of rat heart rate before administration. Repeat for three times.
(2) Administration: intragastric administration after SD rats weighed.
(3) Determination of rat heart rate at the time 0.5 h, 1 h, 3 h, 6 h, 8 h and 24 h after administration. Repeat for three times
Every drug was tested with three SD rats parallelly. […] Delta % of heart rate=(the lowest heart rate postdose−the heart rate pre-administration)/the heart rate pre-administration, reflects the influence of drugs on rat heart rate.

[3] = Table 6, intragastric, listed as FTY720-1
[4] = Table 6, intragastric, listed as FTY720-2

CCCCCCCCc1ccc(CCC(N)(CO)CO)cc1 [FTY720, reference compound]
LYM 0 h ([1]; Table 1, 10 mg/Kg intragastric): 4.20 ± 0.57 × 10^9/L
LYM 1 h ([1]; Table 1, 10 mg/Kg intragastric, 1 h after administration): 4.75 ± 2.76 × 10^9/L
LYM 2 h ([1]; Table 1, 10 mg/Kg intragastric, 2 h after administration): 2.45 ± 0.07 × 10^9/L
LYM 4 h ([1]; Table 1, 10 mg/Kg intragastric, 4 h after administration): 2.75 ± 0.78 × 10^9/L
LYM 8 h ([1]; Table 1, 10 mg/Kg intragastric, 8 h after administration): 1.80 ± 0.14 × 10^9/L
LYM 12 h ([1]; Table 1, 10 mg/Kg intragastric, 12 h after administration): 1.00 ± 0.00 × 10^9/L
LYM 24 h ([1]; Table 1, 10 mg/Kg intragastric, 24 h after administration): 2.60 ± 0.42 × 10^9/L
compared with 0 h (%) 1 h ([1]; Table 1, lymphocyte count change vs 0 h, 10 mg/Kg intragastric, 1 h): −13.10%
compared with 0 h (%) 2 h ([1]; Table 1, lymphocyte count change vs 0 h, 10 mg/Kg intragastric, 2 h): 41.67%
compared with 0 h (%) 4 h ([1]; Table 1, lymphocyte count change vs 0 h, 10 mg/Kg intragastric, 4 h): 34.52%
compared with 0 h (%) 8 h ([1]; Table 1, lymphocyte count change vs 0 h, 10 mg/Kg intragastric, 8 h): 57.14%
compared with 0 h (%) 12 h ([1]; Table 1, lymphocyte count change vs 0 h, 10 mg/Kg intragastric, 12 h): 76.19%
compared with 0 h (%) 24 h ([1]; Table 1, lymphocyte count change vs 0 h, 10 mg/Kg intragastric, 24 h): 38.10%
LYM 0 h ([1]; Table 3, 10 mg/Kg intragastric): 4.97 ± 1.06 ×10^9/L
LYM 1 h ([1]; Table 3, 10 mg/Kg intragastric, 1 h): 3.18 ± 0.52 ×10^9/L
LYM 2 h ([1]; Table 3, 10 mg/Kg intragastric, 2 h): 3.15 ± 0.71 ×10^9/L
LYM 4 h ([1]; Table 3, 10 mg/Kg intragastric, 4 h): 3.44 ± 1.30 ×10^9/L
LYM 6 h ([1]; Table 3, 10 mg/Kg intragastric, 6 h): 2.78 ± 0.84 ×10^9/L
LYM 8 h ([1]; Table 3, 10 mg/Kg intragastric, 8 h): 2.32 ± 0.90 ×10^9/L
LYM 12 h ([1]; Table 3, 10 mg/Kg intragastric, 12 h): 2.33 ± 0.75 ×10^9/L
LYM 23 h ([1]; Table 3, 10 mg/Kg intragastric, 23 h): 1.78 ± 0.29 ×10^9/L
Δ % ([1]; Table 3, 10 mg/Kg intragastric): 64.09%
LYM 0 h ([1]; Table 5, 10 mg/Kg intragastric): 3.80 ± 0.14 × 10^9/L
LYM 1 h ([1]; Table 5, 10 mg/Kg intragastric, 1 h): 2.30 ± 0.85 × 10^9/L
LYM 4 h ([1]; Table 5, 10 mg/Kg intragastric, 4 h): 1.20 ± 0.36 × 10^9/L
LYM 8 h ([1]; Table 5, 10 mg/Kg intragastric, 8 h): 1.07 ± 0.50 × 10^9/L
LYM 12 h ([1]; Table 5, 10 mg/Kg intragastric, 12 h): 1.27 ± 0.23 × 10^9/L
LYM 24 h ([1]; Table 5, 10 mg/Kg intragastric, 24 h): 1.60 ± 0.57 × 10^9/L
Δ % ([1]; Table 5): 71.93%
LYM 0 h ([1]; Table 7, 10 mg/Kg intragastric): 3.80 ± 0.14 × 10^9/L
LYM 1 h ([1]; Table 7, 10 mg/Kg intragastric, 1 h): 2.30 ± 0.85 × 10^9/L
LYM 4 h ([1]; Table 7, 10 mg/Kg intragastric, 4 h): 1.20 ± 0.36 × 10^9/L
LYM 8 h ([1]; Table 7, 10 mg/Kg intragastric, 8 h): 1.07 ± 0.50 × 10^9/L
LYM 12 h ([1]; Table 7, 10 mg/Kg intragastric, 12 h): 1.27 ± 0.23 × 10^9/L
LYM 24 h ([1]; Table 7, 10 mg/Kg intragastric, 24 h): 1.60 ± 0.57 × 10^9/L
Δ % ([1]; Table 7): 71.93%
LYM 0 h ([1]; Table 8, 10 mg/Kg intragastric): 4.20 ± 0.57 × 10^9/L
LYM 1 h ([1]; Table 8, 10 mg/Kg intragastric, 1 h): 4.75 ± 2.76 × 10^9/L
LYM 4 h ([1]; Table 8, 10 mg/Kg intragastric, 4 h): 2.75 ± 0.78 × 10^9/L
LYM 8 h ([1]; Table 8, 10 mg/Kg intragastric, 8 h): 1.80 ± 0.14 × 10^9/L
LYM 12 h ([1]; Table 8, 10 mg/Kg intragastric, 12 h): 1.00 ± 0.00 × 10^9/L
LYM 24 h ([1]; Table 8, 10 mg/Kg intragastric, 24 h): 2.60 ± 0.42 × 10^9/L
Δ % ([1]; Table 8): 76.19%
HR delta % ([2]; Table 2, listed as FTY720-1): 19.60%
HR delta % ([2]; Table 2, listed as FTY720-2): 17.80%
HR delta % ([2]; Table 2, listed as FTY720-3): 14.00%
HR delta % ([2]; Table 2, listed as average of FTY720): 16.6%
heart rate 0.5 h ([2]; Table 2, intragastric, 0.5 h after administration, listed as FTY720-1): 392.33
heart rate 0.5 h ([2]; Table 2, intragastric, 0.5 h after administration, listed as FTY720-2): 361.28
heart rate 0.5 h ([2]; Table 2, intragastric, 0.5 h after administration, listed as FTY720-3): 379.67
heart rate 0.5 h ([2]; Table 2, intragastric, 0.5 h after administration, listed as average of FTY720): 377.76
heart rate 1 h ([2]; Table 2, intragastric, 1 h after administration, listed as FTY720-1): 361.00
heart rate 1 h ([2]; Table 2, intragastric, 1 h after administration, listed as FTY720-2): 331.71
heart rate 1 h ([2]; Table 2, intragastric, 1 h after administration, listed as FTY720-3): 370.62
heart rate 1 h ([2]; Table 2, intragastric, 1 h after administration, listed as average of FTY720): 354.44
heart rate 3 h ([2]; Table 2, intragastric, 3 h after administration, listed as FTY720-1): 318.50
heart rate 3 h ([2]; Table 2, intragastric, 3 h after administration, listed as FTY720-2): 329.33
heart rate 3 h ([2]; Table 2, intragastric, 3 h after administration, listed as FTY720-3): 355.83
heart rate 3 h ([2]; Table 2, intragastric, 3 h after administration, listed as average of FTY720): 334.55
heart rate 6 h ([2]; Table 2, intragastric, 6 h after administration, listed as FTY720-1): 325.78
heart rate 6 h ([2]; Table 2, intragastric, 6 h after administration, listed as FTY720-2): 327.82
heart rate 6 h ([2]; Table 2, intragastric, 6 h after administration, listed as FTY720-3): 342.00
heart rate 6 h ([2]; Table 2, intragastric, 6 h after administration, listed as average of FTY720): 331.86
heart rate 8 h ([2]; Table 2, intragastric, 8 h after administration, listed as FTY720-1): 341.00
heart rate 8 h ([2]; Table 2, intragastric, 8 h after administration, listed as FTY720-2): 338.78
heart rate 8 h ([2]; Table 2, intragastric, 8 h after administration, listed as FTY720-3): 342.50
heart rate 8 h ([2]; Table 2, intragastric, 8 h after administration, listed as average of FTY720): 340.76
heart rate 24 h ([2]; Table 2, intragastric, 24 h after administration, listed as FTY720-1): 329.67
heart rate 24 h ([2]; Table 2, intragastric, 24 h after administration, listed as FTY720-2): 365.07
heart rate 24 h ([2]; Table 2, intragastric, 24 h after administration, listed as FTY720-3): 363.44
heart rate 24 h ([2]; Table 2, intragastric, 24 h after administration, listed as average of FTY720): 352.72
heart rate pre-administration ([2]; Table 2, intragastric, listed as FTY720-1): 396.28
heart rate pre-administration ([2]; Table 2, intragastric, listed as FTY720-2): 398.60
heart rate pre-administration ([2]; Table 2, intragastric, listed as FTY720-3): 398.22
heart rate pre-administration ([2]; Table 2, intragastric, listed as average of FTY720): 397.70
Δ % = the percentage of change of rat heart rate before and after administration ([2]; Table 4): 26.16%
heart rate 0.5 h ([2]; Table 4, intragastric, 0.5 h): 356.33
heart rate 1 h ([2]; Table 4, intragastric, 1 h): 319.22
heart rate 3 h ([2]; Table 4, intragastric, 3 h): 288.58
heart rate 6 h ([2]; Table 4, intragastric, 6 h): 280.13
heart rate 8 h ([2]; Table 4, intragastric, 8 h): 308.08
heart rate 24 h ([2]; Table 4, intragastric, 24 h): 323.25
heart rate 0 ([2]; Table 4, intragastric, time 0, before administration): 379.42
HR delta % ([2]; Table 6, listed as FTY720-1): 21.86%
HR delta % ([2]; Table 6, listed as FTY720-2): 22.61%
heart rate 1 h ([2]; Table 6, intragastric, 1 h, listed as FTY720-1): 389.62 ± 30.01
heart rate 1 h ([2]; Table 6, intragastric, 1 h, listed as FTY720-2): 389.62 ± 23.39
heart rate 4 h [2, 3]: 340.17 ± 32.04
heart rate 4 h [2, 4]: 354.27 ± 15.79
heart rate 8 h ([2]; Table 6, intragastric, 8 h, listed as FTY720-1): 361.69 ± 27.99
heart rate 8 h ([2]; Table 6, intragastric, 8 h, listed as FTY720-2): 346.91 ± 26.41
heart rate 12 h [2, 3]: 360.62 ± 18.19
heart rate 12 h [2, 4]: 335.67 ± 16.30
heart rate 24 h ([2]; Table 6, intragastric, 24 h, listed as FTY720-1): 410.31 ± 32.13
heart rate 24 h ([2]; Table 6, intragastric, 24 h, listed as FTY720-2): 370.18 ± 26.82
heart rate pre-administration [2, 3]: 435.36 ± 47.99
heart rate pre-administration [2, 4]: 433.75 ± 30.84
HR delta % ([2]; Table 9): 17.80%
heart rate 0.5 h ([2]; Table 9, intragastric, 0.5 h): 361.28 ± 22.91
heart rate 1 h ([2]; Table 9, intragastric, 1 h): 331.71 ± 12.26
heart rate 3 h ([2]; Table 9, intragastric, 3 h): 329.33 ± 11.32
heart rate 6 h ([2]; Table 9, intragastric, 6 h): 327.82 ± 15.60
heart rate 8 h ([2]; Table 9, intragastric, 8 h): 338.78 ± 12.07
heart rate 24 h ([2]; Table 9, intragastric, 24 h): 365.07 ± 19.47
heart rate pre-administration ([2]; Table 9, intragastric): 398.60 ± 33.20
